Experimental data: ChEMBL document CHEMBL5728637, “Pyrazolopyrimidine derivatives, preparation method thereof, and pharmaceutical composition for use in preventing or treating cancer, autoimmune disease and brain disease containing the same as an active ingredient” (2021)
pIC50: −log10 of the molar value.

The compounds below were run against Tyrosine-protein kinase BTK (Homo sapiens, UniProt Q06187) (assay: Inhibitory Assay: BTK enzyme evaluation with each compound of examples of the invention was performed by using BTK enzyme inhibition diagnosis kit (Cisbio, Codolet, France). ATP (adenosine triphosphate), BTK, peptide (biotin-Aca-[…]-NH2) and each compound of examples of the invention were mixed, followed by reaction for 30 minutes. Then, EDTA (ethylenediaminetetraacetic acid) was added thereto in order to terminate the reaction. At this time, the EDTA solution contained curopium-containing antibody (antiphosphoresidue antibody) and straptavidin-XL665 (SA-XL665, Cisbio). After incubation for 1 hour, fluorescence was measured. The emission values of 665 nm and 620 nm excited at 337 nm were measured with Envision reader.).
Sequence of Tyrosine-protein kinase BTK (Q06187 whole entry): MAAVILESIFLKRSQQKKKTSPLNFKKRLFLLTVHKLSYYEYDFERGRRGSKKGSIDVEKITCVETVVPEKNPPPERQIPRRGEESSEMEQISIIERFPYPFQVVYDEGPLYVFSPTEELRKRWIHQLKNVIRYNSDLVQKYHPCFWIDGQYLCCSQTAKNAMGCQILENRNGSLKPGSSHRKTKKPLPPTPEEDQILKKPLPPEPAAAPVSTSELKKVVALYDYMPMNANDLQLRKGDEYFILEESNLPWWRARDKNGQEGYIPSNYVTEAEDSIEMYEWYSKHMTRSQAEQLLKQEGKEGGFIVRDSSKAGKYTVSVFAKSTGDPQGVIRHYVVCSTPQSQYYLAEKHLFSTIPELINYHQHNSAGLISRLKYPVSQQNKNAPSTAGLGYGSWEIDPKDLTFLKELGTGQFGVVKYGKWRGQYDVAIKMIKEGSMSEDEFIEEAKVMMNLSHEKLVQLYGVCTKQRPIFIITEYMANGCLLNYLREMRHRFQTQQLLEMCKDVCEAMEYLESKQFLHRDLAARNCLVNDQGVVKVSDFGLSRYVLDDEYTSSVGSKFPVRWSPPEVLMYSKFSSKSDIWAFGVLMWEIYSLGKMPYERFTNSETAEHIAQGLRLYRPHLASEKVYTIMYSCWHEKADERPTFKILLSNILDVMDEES

Compound	pIC50
Cn1nc(Nc2c(Cl)cccc2Cl)c2cnc(Nc3ccc4c(c3)CCNC4)nc21	9.17
Cc1cccc(C)c1Nc1nn(C)c2nc(Nc3ccc4c(c3)CNCC4)ncc12	9.22
Cc1cccc(C)c1Nc1n[nH]c2nc(Nc3ccc4c(c3)CNCC4)ncc12	9.52
Cc1ccc(NC(=O)Nc2cccc(C(F)(F)F)c2)cc1Nc1nn(C)c2nc(Nc3ccc4c(c3)CNCC4)ncc12	7.57
